Assays:
[1] = target: T1, human PI4KIII-beta 13-828 (D316-330) (Homo sapiens, UniProt Q9UBF8); experiment: PI4 KB Activity Assay (ADP-GLO Kinase assay); type: biochemical; settings: 1 mM ATP, 60 μM phosphatidylinositol, 3 hours at room temperature; read-out: mean pIC50 (converted)
T1 construct: human PI4KIII-beta 13-828 (D316-330)
Method: The in vitro inhibition of human PI4KIII-beta 13-828 (D316-330) activity was determined by using the ADP-GLO Kinase assay kit from Promega. Inhibitors were dissolved in 100% DMSO at a concentration of 1 mM. Dilutions were prepared in 100% DMSO using a 1 in 3 serial step dilution. A 60 nL stamp from an 11-point titration was transferred to a white low volume 384 well Greiner assay plate ensuring a final DMSO concentration of 1% across the plate and a top final concentration of inhibitor of 10 μM. The PI4KIII-beta assay contained 25 mM Hepes pH 7.5 (NaOH), 10 mM MgCl2, 0.5 mM EGTA, 0.1% Triton X-100, 2 mM TCEP, and 0.1 mg/ml BSA, 1 mM ATP, 60 μM phosphatidylinositol, and 1.5 nM human PI4K-beta 13-828 (D316-330) in a total volume of 6 μL. The assay was initiated with the addition of enzyme, covered, and incubated at room temperature for 3 hours. The assays were stopped with the addition of 6 μl ADP-GLO Reagent containing 0.1% CHAPS to deplete the unconsumed ATP. The plates were incubated at room temperature for 60 min and then 12 μl of the Kinase Detection Reagent containing 0.1% CHAPS was added to convert ADP to ATP and introduce luciferase and luciferin. After 40 min incubation at room temperature the luminescent signal was read on a BMG Labtech PHERAstar FS with the following settings; Gain 3600, Focal height 13.7 mm, measurement interval time 1 s, Settling time 0.2 s. The inhibitory effect of the PI4K-beta activity of the compounds was evaluated by the IC50 of the response relative to the high, no compound, and low, no enzyme, controls by fitting to the four parameter dose response question.

[2] = system: human rhinovirus Type A Strain 16 (HRVA16) in HeLa Ohio cells; experiment: Cytopathic Effect (CPE) Assay, ATP-depletion in infected HeLa Ohio cells; type: cell-based; settings: Human rhinovirus sp., HRVA16, HeLa, 48 h, HRVA16 at MOI of 1, 33° C. for 2 days, CellTiter-Glo, read-out: mean pIC50 (converted)
Method: c) Cytopathic Effect (CPE) Assay Protocol
The in vitro inhibition of PI4 KB activity was determined by analysis of the inhibition of ATP-depletion in HeLa Ohio cells in response to infection with human rhinovirus Type A Strain 16 (HRVA16). ATP levels were determined using CellTiter-GLO reagent from Promega. Compounds that inhibit PI4 KB are also potent inhibitors of human rhinoviruses and are able to protect HeLa Ohio cells from CPE induced by viral infection and replication. Protected cells remain viable following viral infection and therefore have greater ATP levels.
Compounds were dissolved in 100% DMSO to a concentration of 3 mM and subsequent dilutions were prepared in 100% DMSO using a 1:3 serial step dilution. A 0.5 μL stamp from an 10-point titration was transferred to a white 96 well Greiner tissue culture flat bottom plate (655083). A 0.5 μL stamp of 100% DMSO was stamped into columns 11 and 12 of the plate, ensuring a final assay DMSO concentration of 0.33% across the plate and a compound top final assay concentration of 10 μM.
HeLa Ohio cells were cultured at 37° C., 5% CO2 in media (DMEM supplemented with 10% Australian origin foetal bovine serum and 2 mM glutamax). Cells were passaged when confluency reached >80%. For the assay, cells were grown to 80-90% confluency before detachment.
Cells were detached for the assay by washing with PBS and detached using 3 mL TrypLE Express for […] at 37° C. Detached cells were mixed with 7 mL of media and centrifuged at 300 g for 5 min. The cell pellet was resuspended in 50 mL media and counted on a Beckman Coulter ViCell. Cells were diluted to 6.6×10^4 cells/mL and some of the cell volume was removed into a new tube to be used as a column 12 control. HRVA16 stock was added to the remaining cell suspension at the appropriate dilution for the virus stock to achieve an MOI of 1.
150 μL of the cell+virus suspension was added per well to columns 1-11 using a Multidrop Combi. 150 μL of the separate cell suspension was added per well to columns 12 using a multichannel pipette. Assay plates were sealed and incubated at 33° C., 5% CO2 for 2 days. After 2 days, assay plates were removed from the incubator and allowed to equilibrate to room temperature. 60 μL of CellTiter-Glo reagent was added to all wells using a Thermo Scientific Multidrop Combi. Plates were incubated at room temperature for 20 min before reading on an a Perkin Elmer Envision (Settings: Gripper height 2.5, Fixed measurement height (mm) 6.5, Distance between plate and detector 0, Measurement time (s) 0.1, Glow (ct2) correction factor (0%)).
The inhibitory effect of the compounds on the PI4 KB activity was evaluated by the IC50 of the response relative to the high (no virus, column 12) and low (virus+no inhibitor, column 11) controls by fitting to a four parameter dose response equation.

[3] = intranasal administration, cited from earlier work; for accumulation of compound in lung tissue: rat model
[4] = Spleen Concentration Assay; type: in vivo; settings: male, Wistar Han, rat, intravenous, 1 mg/kg, intravenous infusion 1 mg/kg over 1 h, single male Wistar Han rat, 12 hours after the start of dosing
Method: e) Spleen Concentration Assay Compounds 17, 18, 19, 22 and 23 were tested in this spleen accumulation assay. Compounds were administered intravenously to rats to determine what the level of the compound in the spleen would be if all of the inhaled dose was absorbed (either orally or through the lungs) and systemic circulation was exposed to the full dose. Compounds 17, 19, 22 and 23 were formulated in 2% DMSO in Kleptose (aq, 10% w/v). Compound 18 was formulated in a 5:45:50 ratio of DMSO:PEG200:water. Formulations were administered as intravenous infusions (1 mg/kg over 1 h) to a single male, Wistar Han rat. 12 hours after the start of dosing, rats were euthanised and spleens were collected. Approximately 0.5 g samples of spleen were taken and homogenised in 4 mL water. 100 μL of the resulting homogenates were prepared by protein precipitation with 300 μL of acetonitrile containing an internal standard and assayed (along with calibration standards prepared in the same manner) by reversed-phase liquid chromatography-mass spectrometry, using a heated electrospray source and operated in the positive ion multiple reaction monitoring mode. The liquid chromatography column used was a Waters Cortecs C18 2.7 μm particle size, 50×2.1 mm column at 60° C., and the mobile phase, operated as a gradient, utilised (A) 0.1% formic acid (aq) and (B) 0.1% formic acid in acetonitrile, operated at a flow rate of 1 mL/min.

T1 sequence (Q9UBF8 1-801 isoform Q9UBF8-2): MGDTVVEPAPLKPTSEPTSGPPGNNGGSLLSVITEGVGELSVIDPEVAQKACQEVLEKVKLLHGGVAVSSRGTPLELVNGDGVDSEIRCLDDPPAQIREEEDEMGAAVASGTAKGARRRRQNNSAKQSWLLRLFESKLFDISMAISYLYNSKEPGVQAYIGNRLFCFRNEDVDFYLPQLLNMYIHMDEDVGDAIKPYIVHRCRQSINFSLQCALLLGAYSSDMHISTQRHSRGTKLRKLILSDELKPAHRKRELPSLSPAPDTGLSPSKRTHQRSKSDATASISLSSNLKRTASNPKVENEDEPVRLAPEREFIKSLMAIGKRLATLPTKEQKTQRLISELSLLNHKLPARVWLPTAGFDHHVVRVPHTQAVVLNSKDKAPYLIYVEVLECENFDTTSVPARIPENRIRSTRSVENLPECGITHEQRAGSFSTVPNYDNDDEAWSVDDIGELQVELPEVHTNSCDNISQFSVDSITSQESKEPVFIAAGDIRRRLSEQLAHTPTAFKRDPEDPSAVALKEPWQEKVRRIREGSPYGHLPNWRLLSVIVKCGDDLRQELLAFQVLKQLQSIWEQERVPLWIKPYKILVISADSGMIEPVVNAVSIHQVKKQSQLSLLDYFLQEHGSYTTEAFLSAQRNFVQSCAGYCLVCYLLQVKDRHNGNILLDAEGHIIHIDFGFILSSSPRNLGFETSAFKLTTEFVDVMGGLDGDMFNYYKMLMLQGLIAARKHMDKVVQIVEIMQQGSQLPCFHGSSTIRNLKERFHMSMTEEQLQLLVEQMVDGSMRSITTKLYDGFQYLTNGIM

IC50 [1]	IC50 [2]	concentration at 12 h [4]	Structure (SMILES)	accumulation of compound in lung tissue [3]	histological findings following IN dose ([3]; rat nasal cavity and lung)
≤ 3.98 nM	≤ 25.1 nM		Cc1ccc(-c2c(C)nn3c(NCc4cccc(-c5nccn5C)c4)cc(C(C)(C)O)nc23)cc1C(=O)NCCCO [Compound 60]		
≤ 3.98 nM	≤ 25.1 nM		CCC(O)c1cc(NCc2cccc(-c3nccn3C)c2)n2nc(C)c(-c3ccc(OC)c(C(=O)N(C)C4CCOCC4)c3)c2n1 (single isomer, unassigned) [Compound 77, 5-(5-(1-Hydroxypropyl)-2-methyl-7-((3-(1-methyl-1H-imidazol-2-yl)benzyl)amino)pyrazolo[1,5-a]pyrimidin-3-yl)-2-methoxy-N-methyl-N-(tetrahydro-2H-pyran-4-yl)benzamide]		
≤ 3.98 nM	≤ 25.1 nM		Cc1ccc(-c2c(C)nn3c(NCc4cccc(-c5nccn5C)c4)cc(C(C)CO)nc23)cc1C(=O)N(C)CCCO (stereo not drawn) [Compound 54, 5-(5-(1-Hydroxypropan-2-yl)-2-methyl-7-((3-(1-methyl-1H-imidazol-2-yl)benzyl)amino)pyrazolo[1,5-a]pyrimidin-3-yl)-N-(3-hydroxypropyl)-N,2-dimethylbenzamide]		
≤ 3.98 nM	≤ 25.1 nM		COc1ccc(-c2c(C)nn3c(NCc4cccc(-c5nccn5C)c4)cc(C(C)(C)O)nc23)cc1C(=O)N(C)CCO [Compound 26]		
≤ 3.98 nM	≤ 25.1 nM		Cc1ccc(-c2c(C)nn3c(NCc4cccc(-c5nccn5C)c4)cc(C4(O)CC4)nc23)cc1C(=O)N(C)CCCO [Compound 79, 5-(5-(1-Hydroxycyclopropyl)-2-methyl-7-((3-(1-methyl-1H-imidazol-2-yl)benzyl)amino)pyrazolo[1,5-a]pyrimidin-3-yl)-N-(3-hydroxypropyl)-N,2-dimethylbenzamide]		
≤ 3.98 nM	≤ 25.1 nM		COc1ccc(-c2c(C)nn3c(NCc4cccc(-c5nccn5C)c4)cc(C(C)(C)O)nc23)cc1C(=O)N(C)CCCO [Compound 32, 5-(5-(2-hydroxypropan-2-yl)-2-methyl-7-((3-(1-methyl-1H-imidazol-2-yl)benzyl)amino)pyrazolo[1,5-a]pyrimidin-3-yl)-N-(3-hydroxypropyl)-2-methoxy-N-methylbenzamide]		
≤ 3.98 nM	≤ 25.1 nM		COc1ccc(-c2c(C)nn3c(NCc4cccc(-c5nccn5C)c4)cc(CC4CCOCC4)nc23)cc1S(=O)(=O)CCO [Compound 85, 2-((2-Methoxy-5-(2-methyl-7-((3-(1-methyl-1H-imidazol-2-yl)benzyl)amino)-5-((tetrahydro-2H-pyran-4-yl)methyl)pyrazolo[1,5-a]pyrimidin-3-yl)phenyl)sulfonyl)ethan-1-ol]		
≤ 3.98 nM	≤ 25.1 nM		COc1ccc(-c2c(C)nn3c(NCc4cccc(-c5nccn5C)c4)cc(C(C)O)nc23)cc1S(=O)(=O)CCO (stereo not drawn) [Compound 2, 2-((5-(5-(1-Hydroxyethyl)-2-methyl-7-((3-(1-methyl-1H-imidazol-2-yl)benzyl)amino)pyrazolo[1,5-a]pyrimidin-3-yl)-2-methoxyphenyl)sulfonyl)ethan-1-ol]		
≤ 3.98 nM	≤ 25.1 nM		CCN(CCO)C(=O)c1cc(-c2c(C)nn3c(NCc4cccc(-c5nccn5C)c4)cc(C(C)(C)O)nc23)ccc1C [Compound 38, N-ethyl-N-(2-hydroxyethyl)-5-(5-(2-hydroxypropan-2-yl)-2-methyl-7-((3-(1-methyl-1H-imidazol-2-yl)benzyl)amino)pyrazolo[1,5-a]pyrimidin-3-yl)-2-methylbenzamide]		
≤ 3.98 nM	≤ 25.1 nM		COc1ccc(-c2c(C)nn3c(NCc4cccc(-c5nccn5C)c4)cc(C(C)(C)O)nc23)cc1C(=O)N1CCC(C)(O)C1 (stereo not drawn) [Compound 27]		
			Cc1cc(NCc2cccc(-n3cccc3)c2)n2nc(C)c(-c3ccc(Cl)c(C(=O)N(C)CCN(C)C)c3)c2n1 [GSK3159043A]	substantial accumulation of compound in lung tissue	ulceration in the rat nasal cavity and bronchial epithelial hyperplasia in the rat lung
≤ 3.98 nM	≤ 25.1 nM		COc1ccc(-c2c(C)nn3c(NCc4cccc(-c5nccn5C)c4)cc(C(C)(C)O)nc23)cc1C(=O)N1CCCOCC1 [Compound 28]		
≤ 3.98 nM	≤ 25.1 nM		COc1ccc(-c2c(C)nn3c(NCc4cccc(-c5nccn5C)c4)cc(C(O)C4CC4)nc23)cc1S(=O)(=O)CCO (stereo not drawn) [Compound 4]		
≤ 3.98 nM	≤ 25.1 nM		Cc1nn2c(NCc3cccc(-c4nccn4C)c3)cc(C(C)(C)O)nc2c1-c1cccc(C(=O)N(C)CCCO)c1 [Compound 87, 3-(5-(2-Hydroxypropan-2-yl)-2-methyl-7-((3-(1-methyl-1H-imidazol-2-yl)benzyl)amino)pyrazolo[1,5-a]pyrimidin-3-yl)-N-(3-hydroxypropyl)-N-methylbenzamide]		
≤ 3.98 nM	≤ 25.1 nM		COc1ccc(-c2c(C)nn3c(NCc4cccc(-c5nccn5C)c4)cc(C(C)O)nc23)cc1S(=O)(=O)CCO (single isomer, unassigned) [Compound 71, 2-((5-(5-(1-Hydroxyethyl)-2-methyl-7-((3-(1-methyl-1H-imidazol-2-yl)benzyl)amino)pyrazolo[1,5-a]pyrimidin-3-yl)-2-methoxyphenyl)sulfonyl)ethan-1-ol]		
≤ 3.98 nM		< 7 ng/g	COc1ccc(-c2c(C)nn3c(NCc4cccc(-c5nccn5C)c4)cc(C(C)(C)O)nc23)cc1C(=O)N(C)C [Compound 23]		
			COc1ccc(-c2c(C)nn3c(NCc4cccc(-n5cccc5)c4)cc(OCCCN(C)C)nc23)cc1S(C)(=O)=O [GSK3180404A]	substantial accumulation of compound in lung tissue	
